# Laboratory results reported in patent US5663331A, “Cephalosporin compounds” (Il-Dong Pharm. Co., Ltd., priority 1992, dated 1997).
# How the values were obtained:
# Format in all cases: cell-based
# [1] = test system: Esherichia coli ATCC 25922; assay: MIC, two-fold dilution method, Esherichia coli ATCC 25922; conditions: Muller Hinton Broth, 10^6 CFU per ml, 37° C., 18 to 20 hours; for MIC: read-out: Antibacterial Activity (MIC)
# Method in brief: (§1)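 In vitro antibacterial activity uses a two-fold dilution series in Mueller Hinton Broth. Inoculum density is 10^6 CFU per ml, with incubation at 37° C. for 18 to 20 hours.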
# [2] = test system: Klebsiella pneumoniae ATCC 10031; assay: MIC, two-fold dilution method, Klebsiella pneumoniae ATCC 10031; conditions: 10^6 CFU per ml, 37° C., 18 to 20 hours; for MIC: ATCC10031, Muller Hinton Broth, read-out: Antibacterial Activity (MIC); for Antibacterial Activity (MIC): Muller Hinton Broth
# Method in brief: as §1
# [3] = test system: Staphylococcus epidermidis ATCC 12228; assay: MIC, two-fold dilution method, Staphylococcus epidermidis ATCC 12228; conditions: 10^6 CFU per ml, 37° C., 18 to 20 hours; for MIC: ATCC12228, Muller Hinton Broth, read-out: Antibacterial Activity (MIC); for Antibacterial Activity (MIC): Muller Hinton Broth
# Method in brief: as §1
# [4] = test system: Streptococcus faecalis ATCC 10541; assay: MIC, two-fold dilution method, Streptococcus faecalis ATCC 10541; conditions: 10^6 CFU per ml, 37° C., 18 to 20 hours; for MIC: Enterococcus faecalis, ATCC10541, Muller Hinton Broth, read-out: Antibacterial Activity (MIC); for Antibacterial Activity (MIC): Muller Hinton Broth
# Method in brief: as §1
# [5] = test system: Bacillus subtilis ATCC 6633; assay: MIC, two-fold dilution method, Bacillus subtilis ATCC 6633; conditions: 10^6 CFU per ml, 37° C., 18 to 20 hours; for MIC: ATCC6633, Muller Hinton Broth, read-out: Antibacterial Activity (MIC); for Antibacterial Activity (MIC): Muller Hinton Broth
# Method in brief: as §1
# [6] = test system: Pseudomonas aeurginosa NCTC 10490; assay: MIC, two-fold dilution method, Pseudomonas aeurginosa NCTC 10490; conditions: 10^6 CFU per ml, 37° C., 18 to 20 hours; for MIC: NCTC10490, Muller Hinton Broth, read-out: Antibacterial Activity (MIC); for Antibacterial Activity (MIC): Muller Hinton Broth
# Method in brief: as §1
# [7] = test system: Staphylococcus aureus ATCC 65389; assay: MIC, two-fold dilution method, Staphylococcus aureus ATCC 65389; conditions: 10^6 CFU per ml, 37° C., 18 to 20 hours; for MIC: ATCC65389, Muller Hinton Broth, read-out: Antibacterial Activity (MIC); for Antibacterial Activity (MIC): Muller Hinton Broth
# Method in brief: as §1
MIC [1],MIC [2],MIC [3],MIC [4],MIC [5],MIC [6],MIC [7],Antibacterial Activity (MIC) [1],Antibacterial Activity (MIC) [2],Antibacterial Activity (MIC) [3],Antibacterial Activity (MIC) [4],Antibacterial Activity (MIC) [5],Antibacterial Activity (MIC) [6],Antibacterial Activity (MIC) [7],SMILES
3.13 µg/mL,0.78 µg/mL,0.78 µg/mL,0.39 µg/mL,0.1 µg/mL,1.56 µg/mL,0.2 µg/mL,,,,,,,,"C#CCO/N=C(\C(=O)NC1C(=O)N2C(C(=O)[O-])=C(CSc3cc[n+](CC)c4cc(N5CCNCC5)c(F)cc34)CS[C@H]12)c1csc(N)n1 (stereo partly shown) [Compound I-45, 7-[(Z)-2-(2-aminothiazol-4-yl)-2-(propargyloxyimino)acetamido]-3-(1-ethyl-6-fluoro-7-piperazinylquinolinium-4-yl)thiomethyl-3-cephem-4-carboxylate]"
,,,,,,,1.56 µg/mL,0.39 µg/mL,0.2 µg/mL,0.025 µg/mL,0.1 µg/mL,1.56 µg/mL,0.1 µg/mL,"CC[n+]1ccc(SCC2=C(C(=O)[O-])N3C(=O)C(NC(=O)/C(=N\OC)c4csc(N)n4)[C@H]3SC2)c2cc(F)c(N3CCNCC3C)cc21 (stereo partly shown) [Compound I-12, 7-[(Z)-2-(2-aminothiazol-4-yl)-2-(methoxyimino)acetamido]-3-[1-ethyl-6-fluoro-7-(2-methylpiperazinyl)quinolinium-4-yl]thiomethyl-3-cephem-4-carboxylate]"
6.25 µg/mL,3.13 µg/mL,3.13 µg/mL,1.56 µg/mL,0.78 µg/mL,3.13 µg/mL,6.25 µg/mL,,,,,,,,"CN1CCN(c2cc3c(cc2F)c(SCC2=C(C(=O)[O-])N4C(=O)C(NC(=O)/C(=N\OC(C)(C)C(=O)O)c5csc(N)n5)C4SC2)cc[n+]3C)CC1 (stereo not shown) [Compound I-54, 7-[(Z)-2-(2-aminothiazol-4-yl)-2-(2-carboxyprop-2-oxyimino)acetamido]-3-[1-methyl-6-fluoro-7-(N-methylpiperazinyl)quinolinium-4-yl]thiomethyl-3-cephem-4-carboxylate]"
,,,,,,,0.39 µg/mL,0.39 µg/mL,0.78 µg/mL,0.39 µg/mL,0.2 µg/mL,0.78 µg/mL,0.78 µg/mL,"CC1CNCCN1c1cc2c(cc1F)c(SCC1=C(C(=O)[O-])N3C(=O)C(NC(=O)/C(=N\OC(C)(C)C(=O)O)c4csc(N)n4)[C@H]3SC1)cc[n+]2C (stereo partly shown) [Compound I-56, 7-[(Z)-2-(2-aminothiazol-4-yl)-2-(2-carboxyprop-2-oxyimino)acetamido]-3-[1-methyl-6-fluoro-7-(2-methylpiperazinyl)quinolinium-4-yl]thiomethyl-3-cephem-4-carboxylate]"
3.13 µg/mL,0.78 µg/mL,0.78 µg/mL,0.39 µg/mL,0.39 µg/mL,6.25 µg/mL,1.56 µg/mL,,,,,,,,"C=CCO/N=C(\C(=O)NC1C(=O)N2C(C(=O)[O-])=C(CSc3cc[n+](CC)c4cc(N5CCN(C)CC5)c(F)cc34)CSC12)c1csc(N)n1 (stereo not shown) [Compound I-30, 7-[(Z)-2-(2-aminothiazol-4-yl)-2-(allyloxyimino)acetamido]-3-[1-ethyl-6-fluoro-7-(N-methylpiperazinyl)quinolinium-4-yl]thiomethyl-3-cephem-4-carboxylate]"
6.25 µg/mL,1.56 µg/mL,0.78 µg/mL,0.1 µg/mL,0.2 µg/mL,1.56 µg/mL,0.2 µg/mL,,,,,,,,"C#CCO/N=C(\C(=O)NC1C(=O)N2C(C(=O)[O-])=C(CSc3cc[n+](CC)c4cc(N5CCN(CC)CC5)c(F)cc34)CSC12)c1csc(N)n1 (stereo not shown) [Compound I-47, 7-[(Z)-2-(2-aminothiazol-4-yl)-2-(propargyloxyimino)acetamido]-3-[1-ethyl-6-fluoro-7-(1-ethylpiperazinyl)quinolinium-4-yl]thiomethyl-3-cephem-4-carboxylate]"
12.5 µg/mL,0.1 µg/mL,0.39 µg/mL,0.2 µg/mL,0.39 µg/mL,1.56 µg/mL,0.39 µg/mL,,,,,,,,"CO/N=C(\C(=O)NC1C(=O)N2C(C(=O)[O-])=C(CSc3cc[n+](C4CC4)c4cc(N5CCN(C)CC5)c(F)cc34)CSC12)c1csc(N)n1 (stereo not shown) [Compound I-6, 7-[(Z)-2-(2-aminothiazol-4-yl)-2-(methoxyimino)acetamido]-3-[1-cyclopropyl-6-fluoro-7-(N-methylpiperazinyl)quinolinium-4-yl]thiomethyl-3-cephem-4-carboxylate]"
